Columns and labels:
[1] = Viscosity of aqueous contrast media solution; assay type: physicochemical; details: 300 mg I/ml
Text: (§1) It was surprising that, per this invention, a comparatively minor chemical modification of the class of compounds described in DOS No. 2,628,517 (U.S. Pat. No. 4,239,747) would lead to a significant improvement in compatibility and to an increase in solubility. This can be seen from Table I wherein the compound A of this invention (malonic acid bis[3,5-bis(1,3-dihydroxyisopropylcarbamoyl)-2,4,6-triiodo-N-2-hydroxyethylanilide]) is compared with respect to osmotic pressure, viscosity, and compatibility with oxalic acid bis[3,5-bis(2,3-dihydroxypropyl-N-methylcarbamoyl)-2,4,6-triiodo-anilide] (B), as well as with iopamidol (5-[α-hydroxypropionyl-amino]-2,4,6-triiodoisopthalic acid bis[1,3-dihydroxyisopropyl-amide]) and metrizamide [2-(3-acetamido-2,4,6-triiodo-5-[N-methylacetamido]benzamido)-2-deoxy-D-glucose)].
(§2) Osmotic Pressure, Viscosity, and Compatibility of Nonionic
(§3) Contrast Media of Different Chemical Structure as an Aqueous
(§4) Solution (Concentration: 300 mg I/ml)

Rat = assay: Compatibility: LD50 (Rat) upon i.v. injection; assay type: in vivo; details: rate 2 ml/min, aqueous solution 300 mg I/ml
Method: as §2, §3, §4
Pressure Viscosity (g Iodine/kg Body

[2] = Osmotic pressure of aqueous contrast media solution; assay type: physicochemical; details: 300 mg I/ml
Text: as §1, §2, §3, §4

[3] = for angiography and myelography; background; cited from earlier work

O=C(NC(CO)CO)c1c(I)c(C(=O)NC(CO)CO)c(I)c(N(CCO)C(=O)CC(=O)N(CCO)c2c(I)c(C(=O)NC(CO)CO)c(I)c(C(=O)NC(CO)CO)c2I)c1I [A, malonic acid bis[3,5-bis(1,3-dihydroxyisopropylcarbamoyl)-2,4,6-triiodo-N-2-hydroxyethylanilide]]
Viscosity 37° C. [1]: 6.8 cp
LD50 (Rat) upon i.v. Injection (Rat): more than 30 g Iodine/kg Body Weight
Osmotic Pressure 37° C. [2]: 7.2 atm

CN(CC(O)CO)C(=O)c1c(I)c(NC(=O)C(=O)Nc2c(I)c(C(=O)N(C)CC(O)CO)c(I)c(C(=O)N(C)CC(O)CO)c2I)c(I)c(C(=O)N(C)CC(O)CO)c1I (centres unmarked) [B, oxalic acid bis[3,5-bis(2,3-dihydroxypropyl-N-methylcarbamoyl)-2,4,6-triiodo-anilide]]
Viscosity 37° C. [1]: 13.7 cp
LD50 (Rat) upon i.v. Injection (Rat): 13 g Iodine/kg Body Weight
Osmotic Pressure 37° C. [2]: 4.3 atm

C[C@H](O)C(=O)Nc1c(I)c(C(=O)NC(CO)CO)c(I)c(C(=O)NC(CO)CO)c1I [Iopamidol, 5-[α-hydroxypropionyl-amino]-2,4,6-triiodoisopthalic acid bis[1,3-dihydroxyisopropyl-amide]]
concentrated, radiopaque solutions not hypertonic to blood or other body fluid [3]: it has not been possible to prepare solutions sufficiently concentrated and radiopaque
Viscosity 37° C. [1]: 4.7 cp
LD50 (Rat) upon i.v. Injection (Rat): 12 g Iodine/kg Body Weight
Osmotic Pressure 37° C. [2]: 15.7 atm

CC(=O)Nc1c(I)c(C(=O)N[C@H]2C(O)O[C@H](CO)[C@@H](O)[C@@H]2O)c(I)c(N(C)C(C)=O)c1I (some centres unmarked) [Metrizamide]
concentrated, radiopaque solutions not hypertonic to blood or other body fluid [3]: it has not been possible to prepare solutions sufficiently concentrated and radiopaque
Viscosity 37° C. [1]: 6.2 cp
LD50 (Rat) upon i.v. Injection (Rat): 12 g Iodine/kg Body Weight
Osmotic Pressure 37° C. [2]: 12.3 atm
